Where two headings read alike, the source gives them in different places.
Legend:
[1] = test system: NOD mice; assay: IPGTT in pre-diabetic NOD mice; assay type: in vivo, mouse; conditions: 14-week and 24-week old NOD mice
Experimental: Overnight fasted NOD mice were injected i.p (2 gr/kg bw) with standard 20% dextrose solution. Tail vein blood was sampled on 0, 15, 30, 60, 90 and 120 minutes. Blood glucose was measured by glucometer. Plasma insulin prior to and 30 min following glucose injection was measured using Ultrasensitive Mouse Insulin ELISA kit (Crystal Chem).

[2] = test system: NOD mice; assay: Prevention of overt type 1 diabetes (T1D) in NOD mice; assay type: in vivo, mouse
Experimental: NOD/LtJ mice (Harlan Laboratories) were bred in-house under pathogen-free conditions. Female mice (3-week old) were fed ad libitum from weaning on with standard chow (Harlan Teklad 2018), or with MEDICA16αα diet (0.04% (w/w) MEDICA16αα mixed in Teklad 2018, yielding a dose of 40 mg MEDICA16αα per kg body weight per day). Mice were monitored weekly for body weight and food consumption. Tail vein blood glucose was verified weekly from week 10th on, on a set day and hour. Mice were considered diabetic if presenting non-fasting blood glucose levels >300 mg/dl for 3 consecutive days. Diabetic mice were euthanized, and blood and tissues were sampled for further studies.

[3] = Plasma MEDICA16αα exposure in STZ diabetic rats (LC/MS); assay type: in vivo; conditions: Sprague-Dawley, rat, po, 15 mg/kg, oral 15 mg/kg b.i.d, data not shown
Experimental: Plasma aliquots of 100 μl were vortex-mixed with 50 μl of formic acid:methanol (1:1 v/v) solution containing an internal standard, extracted into n-hexane, centrifuged, and the hexane layer was evaporated to dryness. The residue was reconstituted in the mobile phase and injected into the LC/MS system [Waters Micromass ZQ mass spectrometer (Waters Co.)]. LC/MS conditions were as follows:)(Bridge MS; RP8 column, 3.5 μm, 2.1×100 mm column (Waters Co.); column temperature was 35° C.; isocratic mobile phase, methanol:water (82:18 v/v) containing 0.1% formic acid, at a flow rate of 0.2 ml/min; detector tuned to 500 L/hr nitrogen flow; source temperature; 400° C.; cone voltage 30V; ionization mode ESI+; 365 and 393 m/z for MEDICA16αα and the internal standard, respectively. Calibration curves were linear and validated in the 100 ng/ml to 5000 ng/ml range, with accuracy of 7-9% relative error and precision of 8-10% relative standard deviation.

[4] = test system: NOD mice; assay: Islet insulitis scoring in NOD mice; assay type: in vivo, mouse; conditions: 14-week old pre-diabetic NOD mice
From the text: Head of pancreas of NOD mice was sampled, fixed in 4% buffered formalin, embedded in paraffin, and […] sections were stained with hematoxylin/eosin. Insulitis scores 0 to 4 were verified by the percentage of intra-islet mononuclear granulation (“0”, no intra-islet mononuclear cell infiltration; “1”, <25% of islet being infiltrated with mononuclear cell granulation; “2”, 25%-50%; “3”, 50-75%; “4”, >75%), in 30 to 40 islets per pancreas.

[5] = test system: STZ diabetic rats; assay: Anti-diabetic efficacy in streptozotocin (STZ) diabetic rats (FBG, IPGTT, IPITT, fluid balance, insulin/glucagon content); assay type: in vivo, rat
Experimental: Male Sprague-Dawley (SD) rats weighing 250-275 gr were fed ad libitum (Harlan Teklad 2018), had free access to water, and were kept on a 12:12 h light:dark cycle. Experimental type 1 diabetes (T1D) was induced in overnight fasted rats by a single intra-peritoneal injection of streptozotocin (STZ, 60 mg/kg body weight, Sigma Aldrich) freshly prepared in 0.1 M of cold citrate buffer (pH 4.5), followed by oral 10% glucose solution for the next 24 hours to overcome STZ-induced acute hypoglycemia. STZ diabetic rats (defined as having a fasting blood glucose (FBG) level higher than 300 mg/dl) were selected for further studies.
(§1) SHAM (control) rats were injected with 0.1 M of cold citrate buffer (pH 4.5). STZ diabetic or SHAM rats were dosed twice daily by gavage (orally) with 1% CMC (Sigma Aldrich C5678), or with HOOC—C(CH3)2—(CH2)12—C(CH3)2—COOH (2,2,15,15-tetramethylhexadecane-1,16-dioic acid) also termed herein “MEDICA16αα”, “Medica16αα” or M16αα(15 mg/kg body weight) suspended in 1% CMC, or injected intraperitoneal (i.p.) with Neutral Protamine Hagedorn (NPH) insulin (3 u/kg body weight b.i.d), as indicated.
Administering a combination of Medica16αα and insulin was performed by treating STZ diabetic rats (FBG >300 mg/dl) with oral MEDICA16αα(15 mg/kg b.i.d) for five consecutive days, then MEDICA16αα-responsive rats were further treated with MEDICA16αα(15 mg/kg b.i.d) for 10 additional consecutive days (“STZ/MEDICA Res”), and MEDICA16αα non-responsive rats (FBG >250 mg/dl) were further treated for 10 additional consecutive days with either insulin Neutral Protamine Hagedorn (NPH) (3 u/kg b.i.d subcutaneously) (“STZ/NPH”), or with insulin NPH (3 u/kg b.i.d subcutaneously in combination with oral MEDICA16αα(15 mg/kg b.i.d) (“STZ/MEDICA NPH”).
(§2) Tail vein FBG was verified daily by a glucometer (Glucometer®, Accu-Check® Performa, Roche Diagnostics). Urine secretion, food and water consumption were measured in standard metabolic cages (Tecniplast™ Metabolic Cage Systems for Rodents) for 48 hour periods. Samples were collected and recorded every 12 hour.
Overnight fasted rats were injected i.p (1 gr glucose/kg bw) with 20% dextrose solution (Teva Medical). Tail vein blood was sampled on 0, 30, 60, 90 and 120 minutes following glucose injection.
Fasted rats (5 hours fast) were injected i.p (2 u/kg bw) with HumulinR insulin (Eli Lilly). Tail blood glucose levels were measured by glucometer at 0, 15, 30, 60, and 120 min following insulin injection.
Pancreas and plasma insulin and glucagon content were determined by insulin (Millipore, Cat #RI-13K) and glucagon (Millipore, Cat # GL-32K) radioimmunoassay (RIA) kits. cAMP levels were measured by cAMP kit (Arbor Assays, DetectX Cat # K019-H1).

[6] = test system: SHAM (control) non-diabetic rats; assay: Fasting blood glucose in SHAM (control) non-diabetic rats; assay type: in vivo, rat; conditions: oral 15 mg/kg b.i.d
Experimental: as §1, §2

In the case of CC(C)(CCCCCCCCCCCCC(C)(C)C(=O)O)C(=O)O [MEDICA16αα, 2,2,15,15-tetramethylhexadecane-1,16-dioic acid], the “pre-diabetic IPGTT profile” value [1] is reported as “normalizing”, the glucose-stimulated plasma insulin ([1]; first 30 min of IPGTT) is reported as “remained unaffected” and the “decrease in body weight gain” value ([2]; NOD mice, 40 mg/kg per day in feed) is reported as 40%. The “NOD mice in which development of T1D was delayed or prevented” value ([2]; oral in feed 40 mg/kg per day from weaning, 21 weeks (until week 26), 32% in non-treated group) was 71%, the concentration at 10 days ([3]; read-out: plasma MEDICA16αα exposure, non-responsive rats) was 26 ± 8.7 ng/mL and the concentration at 10 days ([3]; read-out: plasma MEDICA16αα exposure, responsive rats) was 22.5 ± 4.4 ng/mL. For the same compound, the “islet insulitis rankings versus non-treated” value [4] was “essentially similar”, the “pancreatic and/or plasma insulin and glucagon content” value ([5]; STZ diabetic rats, stand-alone treatment) was “not accounted for by significant increase in pancreatic and/or plasma insulin, neither by significant decrease in glucagon content” and the “fluid consumption and excretion” value ([5]; STZ/MEDICA Res rats, stand-alone) was “partial decrease”. The “blood glucose level in i.p glucose tolerance test (IPGTT)” value ([5]; STZ/MEDICA Res rats, stand-alone 15 mg/kg b.i.d) was “amelioration in blood glucose level”, the “STZ diabetic rats in which FBG was normalized (FBG<250 mg/dL)” value ([5]; oral 15 mg/kg b.i.d, 10 consecutive days, stand-alone (no insulin), all-or-none response) was “about 40%” and the “treated STZ diabetic rats that remained non responsive (FBG >250 mg/dl)” value ([5]; oral 15 mg/kg b.i.d, stand-alone) was 60%. The hypoglycemia [6] was “did not result in hypoglycemia”.

Reference: patent US10512624B2, “Long-chain amphipathic dicarboxylic acids for treatment of diabetes type-1” (Syndromex Ltd., priority 2016, dated 2019)
